According to patent US20210392892A1, “COMPOSITIONS COMPRISING PYRIDINE CARBOXYLATE HERBICIDES AND ACETYL COA CARBOXYLASE (ACCASE) INHIBITOR HERBICIDES” (Corteva Agriscience LLC, priority 2018, published 2021):

Assays:
Assay in all cases: Greenhouse postemergence herbicidal effect (visual injury)
Assay type in all cases: in vivo
[1] = test system: ABUTH, Abutilon theophrasti (velvetleaf)
Description: (§1) Seeds of the desired test plant species were planted in a 90:10% v/v (volume/volume) mixture of PRO-MIX® BX (Premier Tech Horticulture, Quakertown, Pa., USA) and PROFILE® GREENS GRADE™ (Profile Products LLC, Buffalo Grove, Ill., USA) planting mixture, which typically has a pH of 5.2 to 6.2 and an organic matter content of at least 50 percent, in plastic pots with a surface area of 103.2 square centimeters (cm^2). In some aspects, to help ensure good germination and healthy plants, a fungicide treatment and/or other chemical or physical treatment was applied. The plants were grown for 7-36 days (d) in a greenhouse with an approximate 14-hour (h) photoperiod which was maintained at about 23° C. during the day and 22° C. during the night. Nutrients and water were added on a regular basis and supplemental lighting was provided with overhead metal halide 1000-Watt lamps as necessary. The plants were employed for testing when they reached the second or third true leaf stage.
(§2) Emulsifiable concentrates of each of each pyridine carboxylate herbicide (Compound A or Compound B) were prepared at 100 grams acid equivalent per liter (g ae/L). The emulsifiable concentrates also included a safener, cloquintocet-mexyl, at 120 grams active ingredient per liter (g ai/L), unless otherwise noted below. An aliquot of each emulsifiable concentrate was placed in a 25 mL glass vial and diluted with an aqueous mixture of 1.25% (v/v) ACTIROB® B esterified rapeseed oil (Bayer Crop Science, Research Triangle Park, N.C., USA) or MSO® Concentrate with LECI-TECH® methylated soybean oil (Loveland Products, Loveland, Colo., USA) to obtain concentrated stock solutions at the highest application rate for each herbicide, based upon a 12 milliliter (mL) application volume at a rate of 187 liters per hectare (L/ha). The concentrated stock solutions were further diluted with an aqueous mixture of 1.25% v/v ACTIROB® B or MSO® Concentrate with LECI-TECH® to obtain stock solutions at reduced application rates for each herbicide. Spray solutions of the herbicide combinations (Compound A or Compound B plus ACCase inhibitor herbicide) were prepared by adding weighed amounts or aliquots of the ACCase inhibitor herbicide to the stock solutions of Compound A or Compound B to form 12-mL spray solutions in two-way combinations.
(§3) The spray solutions were applied to the plant material with an overhead Mandel track sprayer equipped with 8002E nozzles calibrated to deliver 187 L/ha over an application area of 0.503 square meters (m^2) at a spray height of 18 inches (43 centimeters (cm)) above the average plant canopy. Control plants were sprayed in the same manner with the solvent blank. All pyridine carboxylate herbicide (component a) application rates are given as “g ae/ha” and all ACCase inhibitor herbicide (component b) application rates are given as “g ai/ha.”
(§4) The treated plants and control plants were placed in a greenhouse as described above and watered by sub-irrigation to prevent wash-off of the test compounds. After 20-22 d, the condition of the test plants as compared with that of the control plants was determined visually and scored on a scale of 0 to 100 percent where 0 corresponds to no injury and 100 corresponds to complete kill.

[2] = test system: BRAPP, Brachiaria platyphylla (broadleaf signalgrass); conditions: with cloquintocet-mexyl
Description: as §1, §2, §3, §4

[3] = test system: BRSNN, Brassica napus (spring rape); conditions: with cloquintocet-mexyl
Description: as §1, §2, §3, §4

[4] = test system: BRSNW, Brassica napus (winter rape)
Description: as §1, §2, §3, §4

[5] = test system: CYPDI, Cyperus difformis (small-flower flatsedge); conditions: with cloquintocet-mexyl
Description: as §1, §2, §3, §4

[6] = test system: GLXMA, Glycine max (soybean)
Description: as §1, §2, §3, §4

[7] = test system: HELAN, Helianthus annuus (common sunflower)
Description: as §1, §2, §3, §4

[8] = test system: IPOHE, Ipomoea hederacea (ivyleaf morningglory)
Description: as §1, §2, §3, §4

[9] = test system: LOLMG, Lolium multiflorum subsp. gaudini (annual ryegrass); conditions: with cloquintocet-mexyl
Description: as §1, §2, §3, §4

[10] = test system: ORYSA, Oryza sativa (common rice); conditions: with cloquintocet-mexyl
Description: as §1, §2, §3, §4

[11] = test system: POLCO, Polygonum convolvulus (wild buckwheat)
Description: as §1, §2, §3, §4

[12] = test system: RUMOB, Rumex obtusifolius (broad-leaf dock)
Description: as §1, §2, §3, §4

[13] = test system: SORVU, Sorghum vulgare (grain sorghum)
Description: as §1, §2, §3, §4

[14] = test system: STEME, Stellaria media (chickweed)
Description: as §1, §2, §3, §4

[15] = test system: VIOTR, Viola tricolor (wild pansy)
Description: as §1, §2, §3, §4

[16] = 7.5 g ae/ha, without cloquintocet-mexyl
[17] = 10 g ae/ha, without cloquintocet-mexyl
[18] = 7.5 g ae/ha, with cloquintocet-mexyl
[19] = 10 g ae/ha, with cloquintocet-mexyl

Compound: N#CCOC(=O)c1nc(-c2ccc3cc[nH]c3c2F)c(F)c(N)c1Cl [Compound A, cyanomethyl 4-amino-3-chloro-5-fluoro-6-(7-fluoro-1H-indol-6-yl)pyridine-2-carboxylate]
- % visual injury, Obs [1, 16]: 70%
- % visual injury, Obs [1, 17]: 75%
- % visual injury, Obs ([1]; ABUTH, Compound A 7.5 g/ha, Fluazifop 0 g/ha): 70%
- % visual injury, Obs ([1]; ABUTH, Compound A 10 g/ha, Fluazifop 0 g/ha): 75%
- % visual injury, Obs ([2]; 7.5 g ae/ha): 43%
- % visual injury, Obs ([2]; 10 g ae/ha): 68%
- % visual injury, Obs ([3]; 7.5 g ae/ha): 23%
- % visual injury, Obs ([3]; 10 g ae/ha): 45%
- % visual injury, Obs [4, 16]: 50%
- % visual injury, Obs [4, 17]: 65%
- % visual injury, Obs ([4]; BRSNW, Compound A 7.5 g/ha, Fluazifop 0 g/ha): 50%
- % visual injury, Obs ([4]; BRSNW, Compound A 10 g/ha, Fluazifop 0 g/ha): 65%
- % visual injury, Obs ([5]; 7.5 g ae/ha): 60%
- % visual injury, Obs ([5]; 10 g ae/ha): 72%
- % visual injury, Obs [6, 16]: 85%
- % visual injury, Obs [6, 17]: 85%
- % visual injury, Obs ([6]; GLXMA, Compound A 7.5 g/ha, Fluazifop 0 g/ha): 85%
- % visual injury, Obs ([6]; GLXMA, Compound A 10 g/ha, Fluazifop 0 g/ha): 85%
- % visual injury, Obs [7, 16]: 95%
- % visual injury, Obs [7, 17]: 100%
- % visual injury, Obs ([7]; HELAN, Compound A 7.5 g/ha, Fluazifop 0 g/ha): 95%
- % visual injury, Obs ([7]; HELAN, Compound A 10 g/ha, Fluazifop 0 g/ha): 100%
- % visual injury, Obs [8, 16]: 10%
- % visual injury, Obs [8, 17]: 15%
- % visual injury, Obs ([8]; IPOHE, Compound A 7.5 g/ha, Fluazifop 0 g/ha): 10%
- % visual injury, Obs ([8]; IPOHE, Compound A 10 g/ha, Fluazifop 0 g/ha): 15%
- % visual injury, Obs ([9]; 7.5 g ae/ha): 0%
- % visual injury, Obs ([9]; 10 g ae/ha): 3%
- % visual injury, Obs ([10]; 7.5 g ae/ha): 0%
- % visual injury, Obs ([10]; 10 g ae/ha): 0%
- % visual injury, Obs [11, 16]: 80%
- % visual injury, Obs [11, 17]: 78%
- % visual injury, Obs ([11]; POLCO, Compound A 7.5 g/ha, Fluazifop 0 g/ha): 80%
- % visual injury, Obs ([11]; POLCO, Compound A 10 g/ha, Fluazifop 0 g/ha): 78%
- % visual injury, Obs [12, 18]: 13%
- % visual injury, Obs [12, 16]: 38%
- % visual injury, Obs [12, 19]: 8%
- % visual injury, Obs [12, 17]: 35%
- % visual injury, Obs ([12]; RUMOB, Compound A 7.5 g/ha, Fluazifop 0 g/ha): 38%
- % visual injury, Obs ([12]; RUMOB, Compound A 10 g/ha, Fluazifop 0 g/ha): 35%
- % visual injury, Obs [13, 16]: 0%
- % visual injury, Obs [13, 17]: 0%
- % visual injury, Obs ([13]; SORVU, Compound A 7.5 g/ha, Fluazifop 0 g/ha): 0%
- % visual injury, Obs ([13]; SORVU, Compound A 10 g/ha, Fluazifop 0 g/ha): 0%
- % visual injury, Obs [14, 18]: 90%
- % visual injury, Obs [14, 16]: 73%
- % visual injury, Obs [14, 19]: 85%
- % visual injury, Obs [14, 17]: 88%
- % visual injury, Obs ([14]; STEME, Compound A 7.5 g/ha, Fluazifop 0 g/ha): 73%
- % visual injury, Obs ([14]; STEME, Compound A 10 g/ha, Fluazifop 0 g/ha): 88%
- % visual injury, Obs [15, 16]: 8%
- % visual injury, Obs [15, 17]: 15%
- % visual injury, Obs ([15]; VIOTR, Compound A 7.5 g/ha, Fluazifop 0 g/ha): 8%
- % visual injury, Obs ([15]; VIOTR, Compound A 10 g/ha, Fluazifop 0 g/ha): 15%
